From US20260364185A1, “Estrogen Receptor Modulator and Use Thereof” (JIANGSU VCARE PHARMATECH CO., LTD., priority 2023, published 2026)

System: MCF7 cells
Assay: MCF7 cell activity test (CCK8 proliferation inhibition)
Assay type: cell-based
Conditions: Homo sapiens, MCF7, 144 h, 6 days incubation
Procedure: Experimental Example 1: MCF7 cell activity test
Cell culture: MCF7 cells (culture conditions: MEM medium+20% FBS+1% essential amino acids++1 mg/100 ml insulin, 37° C., 5% CO2). Plating: The cells subcultured into the logarithmic growth phase were collected and transferred into a centrifuge tube, and centrifuged at 800 rpm for 5 min. The cells were resuspended in complete medium and counted. The cells were diluted and adjusted to a final concentration of 30,000 cells/mL. The cells were then seeded into a 96-well plate with 100 μL per well and incubated in an incubator overnight. Administration: Each group of drug solutions was added into the 96-well plate, 100 μL per well, n=3 for each drug concentration. Meanwhile, negative wells (n=6) and blank wells (n=3) were set up. The 96-well plate was incubated in the incubator for further 6 days. CCK8 reagent was added to the 96-well plate, 20 μL per well, and then the plate was placed in the incubator for further 4 h. The absorbance of the solution was measured at a wavelength of 450 nm using an enzyme reader. The proliferation inhibition rate was calculated and the half inhibitory concentration IC50 value was calculated using Graphpad Prism 6.0 software.

Compound	IC50
Cn1nc(N2CCC(=O)NC2=O)c2cc(F)c(C3CCN(C[C@H]4CCCC[C@@H]4CN4CCN(c5ccc([C@@H]6c7ccc(O)cc7CC[C@@H]6c6ccccc6)cc5)CC4)CC3(F)F)cc21 (stereo in doubt) [IV-12]	< 100 nM
O=C1CCC(NC(=O)c2ccc(C3CCN(C[C@@H]4CCCC[C@H]4CN4CCN(c5ccc([C@@H]6c7ccc(O)cc7CC[C@@H]6c6ccccc6)cc5)CC4)CC3)cc2F)C(=O)N1 (stereo partly drawn) [Compound I-67, N-(2,6-dioxopiperidin-3-yl)-2-fluoro-4-(1-(((1R,2R)-2-((4-(4-((1R,2S)-6-hydroxy-2-phenyl-1,2,3,4-tetrahydronaphthalen-1-yl)phenyl)piperazin-1-yl)methyl)cyclohexyl)methyl)piperidin-4-yl)benzamide]	< 100 nM
O=C1CCC(NC(=O)c2ccc(N3CCN(C[C@@H]4CCCC[C@H]4CN4CCN(c5ccc([C@@H]6c7ccc(O)cc7CC[C@@H]6c6ccccc6)cc5)CC4)CC3)cc2F)C(=O)N1 (some centres unmarked) [Compound I-69]	< 25 nM
Cc1nc2cc(N3CCN(C[C@@H]4CCCC[C@H]4CN4CCN(c5ccc([C@@H]6c7ccc(O)cc7CC[C@@H]6c6ccccc6)cc5)CC4)CC3)ccc2n1C1CCC(=O)NC1=O (some centres unmarked) [Compound V-1]	< 100 nM
O=C1CCC(n2cnc3cc(N4CCN(C[C@@H]5CCCC[C@H]5CN5CCN(c6ccc([C@@H]7c8ccc(O)cc8CC[C@@H]7c7ccccc7)cc6)CC5)CC4)c(F)cc32)C(=O)N1 (some centres unmarked) [Compound V-2]	< 50 nM
O=C1CCC(n2cnc3cc(N4CCN(C[C@@H]5CCCC[C@H]5CN5CCN(c6ccc([C@@H]7c8ccc(O)cc8CC[C@@H]7c7ccccc7)cc6)CC5)CC4)ccc32)C(=O)N1 (some centres unmarked) [Compound V-3]	< 50 nM
O=C1CCC(n2cnc3cc(C4CCN(C[C@@H]5CCCC[C@H]5CN5CCN(c6ccc([C@@H]7c8ccc(O)cc8CC[C@@H]7c7ccccc7)cc6)CC5)CC4)c(F)cc32)C(=O)N1 (some centres unmarked) [Compound V-5]	< 100 nM
O=C1CCC(n2cnc3cc(C4CCN(C[C@@H]5CCCC[C@H]5CN5CCN(c6ccc([C@@H]7c8ccc(O)cc8CC[C@@H]7c7ccccc7)cc6)CC5)CC4)ccc32)C(=O)N1 (some centres unmarked) [Compound V-7]	< 100 nM
O=C1CCC(NC(=O)c2ccc(N3CCN(C[C@@H]4CCCC[C@H]4CN4CCN(c5ccc([C@@H]6c7ccc(O)cc7CC[C@@H]6c6ccccc6)cc5)CC4)CC3)cn2)C(=O)N1 (stereo partly drawn) [III-1, N-(2,6-dioxopiperidin-3-yl)-5-(4-(((1R,2R)-2-((4-(4-((1R,2S)-6-hydroxy-2-phenyl-1,2,3,4-tetrahydronaphthalen-1-yl)phenyl)piperazin-1-yl)methyl)cyclohexyl)methyl)piperazin-1-yl)pyridinecarboxamide]	< 25 nM
O=C1CCC(NC(=O)c2ccc(N3CCN(C[C@H]4CCCC[C@@H]4CN4CCN(c5ccc([C@@H]6c7ccc(O)cc7CC[C@@H]6c6ccccc6)cc5)CC4)CC3)cn2)C(=O)N1 (stereo partly drawn) [III-2, N-(2,6-dioxopiperidin-3-yl)-5-(4-(((1S,2S)-2-((4-(4-((1R,2S)-6-hydroxy-2-phenyl-1,2,3,4-tetrahydronaphthalen-1-yl)phenyl)piperazin-1-yl)methyl)cyclohexyl)methyl)piperazin-1-yl)pyridinecarboxamide]	< 100 nM
O=C1CCC(NC(=O)c2ccc(C3CCN(C[C@@H]4CCCC[C@H]4CN4CCN(c5ccc([C@@H]6c7ccc(O)cc7CC[C@@H]6c6ccccc6)cc5)CC4)CC3)cn2)C(=O)N1 (stereo partly drawn) [III-3, N-(2,6-dioxopiperidin-3-yl)-5-(1-(((1R,2R)-2-((4-(4-((1R,2S)-6-hydroxy-2-phenyl-1,2,3,4-tetrahydronaphthalen-1-yl)phenyl)piperazin-1-yl)methyl)cyclohexyl)methyl)piperidin-4-yl)pyridinecarboxamide]	< 100 nM
Cn1nc(C2CCC(=O)NC2=O)c2cc(F)c(N3CCN(C[C@@H]4CCCC[C@H]4CN4CCN(c5ccc([C@@H]6c7ccc(O)cc7CC[C@@H]6c6ccccc6)cc5)CC4)CC3)cc21 (some centres unmarked) [IV-1]	< 50 nM
Cn1nc(C2CCC(=O)NC2=O)c2ccc(N3CCN(C[C@@H]4CCCC[C@H]4CN4CCN(c5ccc([C@@H]6c7ccc(O)cc7CC[C@@H]6c6ccccc6)cc5)CC4)CC3)cc21 (stereo partly drawn) [IV-3, 3-(6-(4-(((1R,2R)-2-((4-(4-((1R,2S)-6-hydroxy-2-phenyl-1,2,3,4-tetrahydronaphthalen-1-yl)phenyl)piperazin-1-yl)methyl)cyclohexyl)methyl)piperazin-1-yl)-1-methyl-1H-indazol-3-yl)piperidine-2,6-dione]	< 25 nM
Cn1nc(C2CCC(=O)NC2=O)c2ccc(N3CCN(C[C@H]4CCCC[C@@H]4CN4CCN(c5ccc([C@@H]6c7ccc(O)cc7CC[C@@H]6c6ccccc6)cc5)CC4)CC3)cc21 (stereo partly drawn) [IV-4, 3-(6-(4-(((1S,2S)-2-((4-(4-((1R,2S)-6-hydroxy-2-phenyl-1,2,3,4-tetrahydronaphthalen-1-yl)phenyl)piperazin-1-yl)methyl)cyclohexyl)methyl)piperazin-1-yl)-1-methyl-1H-indazol-3-yl)piperidine-2,6-dione]	< 100 nM
Cn1nc(N2CCC(=O)NC2=O)c2cc(F)c(N3CCN(C[C@@H]4CCCC[C@H]4CN4CCN(c5ccc([C@@H]6c7ccc(O)cc7CC[C@@H]6c6ccccc6)cc5)CC4)CC3)cc21 [IV-5]	< 25 nM
Cn1nc(C2CCC(=O)NC2=O)c2cc(F)c(C3CCN(C[C@H]4CCCC[C@@H]4CN4CCN(c5ccc([C@@H]6c7ccc(O)cc7CC[C@@H]6c6ccccc6)cc5)CC4)CC3)cc21 (stereo partly drawn) [IV-10, 3-(5-fluoro-6-(1-(((1S,2S)-2-((4-(4-((1R,2S)-6-hydroxy-2-phenyl-1,2,3,4-tetrahydronaphthalen-1-yl)phenyl)piperazin-1-yl)methyl)cyclohexyl)methyl)piperidin-4-yl)-1-methyl-1H-indazol-3-yl)piperidin-2,6-dione]	< 50 nM

Compound	IC50
O=C1CCC(n2ncc3cc(N4CCN(C[C@@H]5CCCC[C@H]5CN5CCN(c6ccc([C@@H]7c8ccc(O)cc8CC[C@@H]7c7ccccc7)cc6)CC5)CC4)c(F)cc32)C(=O)N1 (some centres unmarked) [VI-5]	< 50 nM
O=C1CCC(n2ncc3cc(N4CCN(C[C@@H]5CCCC[C@H]5CN5CCN(c6ccc([C@@H]7c8ccc(O)cc8CC[C@@H]7c7ccccc7)cc6)CC5)CC4)ccc32)C(=O)N1 (some centres unmarked) [VI-6]	< 100 nM
Cc1nn(C2CCC(=O)NC2=O)c2ccc(C3CCN(C[C@@H]4CCCC[C@H]4CN4CCN(c5ccc([C@@H]6c7ccc(O)cc7CC[C@@H]6c6ccccc6)cc5)CC4)CC3)cc12 (some centres unmarked) [VI-8]	< 50 nM
Cc1nn(C2CCC(=O)NC2=O)c2cc(F)c(C3CCN(C[C@@H]4CCCC[C@H]4CN4CCN(c5ccc([C@@H]6c7ccc(O)cc7CC[C@@H]6c6ccccc6)cc5)CC4)CC3)cc12 (some centres unmarked) [VI-9]	< 100 nM
Cn1nc(N2CCC(=O)NC2=O)c2cc(F)c(C3CC4CCC(C3)N4C[C@@H]3CCCC[C@H]3CN3CCN(c4ccc([C@@H]5c6ccc(O)cc6CC[C@@H]5c5ccccc5)cc4)CC3)cc21 (some centres unmarked) [VI-17]	< 25 nM
Cn1nc(N2CCC(=O)NC2=O)c2cc(F)c(C3CCN(C[C@@H]4CCCC[C@H]4CN4CCN(c5ccc([C@@H]6c7ccc(O)cc7CC[C@@H]6c6ccccc6)cc5)CC4)C4(CC4)C3)cc21 (some centres unmarked) [VI-18]	< 25 nM
Cn1nc(N2CCC(=O)NC2=O)c2cc(F)c(C3CCN(C4CCN(C[C@@H]5CCCC[C@H]5CN5CCN(c6ccc([C@@H]7c8ccc(O)cc8CC[C@@H]7c7ccccc7)cc6)CC5)CC4)CC3)cc21 [VI-19]	< 50 nM
C[C@@H]1CC(c2cc3c(cc2F)c(N2CCC(=O)NC2=O)nn3C)CCN1C[C@@H]1CCCC[C@H]1CN1CCN(c2ccc([C@@H]3c4ccc(O)cc4CC[C@@H]3c3ccccc3)cc2)CC1 (some centres unmarked) [VI-20]	< 25 nM
C[C@H]1CC(c2cc3c(cc2F)c(N2CCC(=O)NC2=O)nn3C)CCN1C[C@@H]1CCCC[C@H]1CN1CCN(c2ccc([C@@H]3c4ccc(O)cc4CC[C@@H]3c3ccccc3)cc2)CC1 (some centres unmarked) [VI-21]	< 50 nM
C[C@@H]1CC(c2cc3c(cc2F)c(N2CCC(=O)NC2=O)nn3C)C[C@H](C)N1C[C@@H]1CCCC[C@H]1CN1CCN(c2ccc([C@@H]3c4ccc(O)cc4CC[C@@H]3c3ccccc3)cc2)CC1 (some centres unmarked) [VI-22]	< 50 nM
Cn1nc(N2CCC(=O)NC2=O)c2cc(F)c(C3CCC(N4CCN(C[C@@H]5CCCC[C@H]5CN5CCN(c6ccc([C@@H]7c8ccc(O)cc8CC[C@@H]7c7ccccc7)cc6)CC5)CC4)CC3)cc21 (some centres unmarked) [VI-24]	< 25 nM
Cn1nc(N2CCC(=O)NC2=O)c2cc(F)c(C3CCC(N(C[C@@H]4CCCC[C@H]4CN4CCN(c5ccc([C@@H]6c7ccc(O)cc7CC[C@@H]6c6ccccc6)cc5)CC4)C4CC4)CC3)cc21 (some centres unmarked) [VI-25]	< 100 nM
Cn1nc(N2CCC(=O)NC2=O)c2cc(F)c(N3CC4(CN(C[C@@H]5CCCC[C@H]5CN5CCN(c6ccc([C@@H]7c8ccc(O)cc8CC[C@@H]7c7ccccc7)cc6)CC5)C4)C3)cc21 [VI-26]	< 50 nM
Cn1nc(N2CCC(=O)NC2=O)c2cc(F)c(N3CC4(CCN(C[C@@H]5CCCC[C@H]5CN5CCN(c6ccc([C@@H]7c8ccc(O)cc8CC[C@@H]7c7ccccc7)cc6)CC5)CC4)C3)cc21 [VI-27]	< 25 nM
COC1(c2cc3c(cc2F)c(N2CCC(=O)NC2=O)nn3C)CCN(C[C@@H]2CCCC[C@H]2CN2CCN(c3ccc([C@@H]4c5ccc(O)cc5CC[C@@H]4c4ccccc4)cc3)CC2)CC1 [VI-28]	< 25 nM
C[C@@H]1CC(O)(c2cc3c(cc2F)c(N2CCC(=O)NC2=O)nn3C)CCN1C[C@@H]1CCCC[C@H]1CN1CCN(c2ccc([C@@H]3c4ccc(O)cc4CC[C@@H]3c3ccccc3)cc2)CC1 (stereo partly drawn) [VI-29, 1-(5-fluoro-6-((2R)-4-hydroxy-1-(((1R, 2R)-2-((4-(4-((1R, 2S)-6-hydroxy-2-phenyl-1,2,3,4-tetrahydronaphthalen-1-yl)phenyl)piperazin-1-yl)methyl)cyclohexyl)methyl)-2-methylpiperidin-4-yl)-1-methyl-1H-indazol-3-yl)dihydropyrimidine-2,4 (1H,3H)-dione]	< 25 nM
